Results reported in the supplement of paper PMC10307832.

How the values were obtained:
Assay in all cases: relative viability (nuclei count vs DMSO), 5 days (fraction); higher = more cells survive
[1] = compound: CCN1C(=O)C2=CC(=C(N=C2N(C1=O)C3CC3)N)C(=O)N
Summary of the method: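 Lung cancer cell lines in 1536-well plates were exposed by pinning to five library-drug doses (not always all listed) √10 apart, following an overnight hold at 37 °C. MetaXpress counted Hoechst-stained nuclei from 4× images taken after 5 days without medium change. Viability is the median ratio of treated-well to vehicle-well nuclei across plates. Plates required control CV below 25% and at least one doubling.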

[2] = compound: CCN1C(=O)C2=CC(=C(N=C2N(C1=O)C3CC3)N)C(=O)N + C[C@@H](Oc1cc(-c2cnn(C3CCNCC3)c2)cnc1N)c1c(Cl)ccc(F)c1Cl [Crizotinib] (partner 1 µM)
Summary of the method: (§1)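 Lung cancer cell lines in 1536-well plates got either a single drug or a fixed anchor-drug dose together with five library-drug doses (not always all listed) in √10 steps, by pin tool, on the day after seeding. Nuclei were counted after 5 days, and relative viability is the treated-to-vehicle ratio of nuclei counts. Values are medians of duplicate plates.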

[3] = compound: CCN1C(=O)C2=CC(=C(N=C2N(C1=O)C3CC3)N)C(=O)N + O=C(CCCCCCC(=O)Nc1ccccc1)NO [Vorinostat] (partner 1 µM)
Summary of the method: as §1

[4] = compound: CCN1C(=O)C2=CC(=C(N=C2N(C1=O)C3CC3)N)C(=O)N + C[C@]1(O)C[C@@H](c2nc(-c3ccc4ccc(-c5ccccc5)nc4c3)c3c(N)nccn32)C1 [Linsitinib] (partner 1 µM)
Summary of the method: as §1

[5] = compound: CCN1C(=O)C2=CC(=C(N=C2N(C1=O)C3CC3)N)C(=O)N + CCNC(=O)c1noc(-c2cc(C(C)C)c(O)cc2O)c1-c1ccc(CN2CCOCC2)cc1 [Luminespib] (partner 0.01 µM)
Summary of the method: as §1

LOU-NH91
relative viability ([1]; 0.253 µM): 0.838 | relative viability ([1]; 0.8 µM): 0.921 | relative viability ([1]; 2.53 µM): 0.996 | relative viability ([1]; 8 µM): 0.944 | relative viability ([2]; first compound 0.253 µM): 0.705 | relative viability ([2]; first compound 0.8 µM): 0.718 | relative viability ([2]; first compound 2.53 µM): 0.767 | relative viability ([2]; first compound 8 µM): 0.707 | relative viability ([3]; first compound 0.253 µM): 0.863 | relative viability ([3]; first compound 0.8 µM): 0.848 | relative viability ([3]; first compound 2.53 µM): 0.948 | relative viability ([3]; first compound 8 µM): 0.903 | relative viability ([4]; first compound 0.253 µM): 1.04 | relative viability ([4]; first compound 0.8 µM): 0.951 | relative viability ([4]; first compound 2.53 µM): 0.96 | relative viability ([4]; first compound 8 µM): 0.879 | relative viability ([5]; first compound 0.253 µM): 0.283 | relative viability ([5]; first compound 0.8 µM): 0.452 | relative viability ([5]; first compound 2.53 µM): 0.379 | relative viability ([5]; first compound 8 µM): 0.349

NCI-H522
relative viability ([1]; 0.253 µM): 0.876 | relative viability ([1]; 0.8 µM): 0.985 | relative viability ([1]; 2.53 µM): 0.983 | relative viability ([1]; 8 µM): 0.906 | relative viability ([3]; first compound 0.253 µM): 0.924 | relative viability ([3]; first compound 0.8 µM): 0.81 | relative viability ([3]; first compound 2.53 µM): 0.924 | relative viability ([3]; first compound 8 µM): 1.01 | relative viability ([5]; first compound 0.253 µM): 1.19 | relative viability ([5]; first compound 0.8 µM): 0.977 | relative viability ([5]; first compound 2.53 µM): 1.12 | relative viability ([5]; first compound 8 µM): 1.05

NCI-H1395
relative viability ([1]; 0.253 µM): 0.935 | relative viability ([1]; 0.8 µM): 0.972 | relative viability ([1]; 2.53 µM): 1.08 | relative viability ([1]; 8 µM): 0.921 | relative viability ([3]; first compound 0.253 µM): 0.716 | relative viability ([3]; first compound 0.8 µM): 0.549 | relative viability ([3]; first compound 2.53 µM): 0.912 | relative viability ([3]; first compound 8 µM): 0.674 | relative viability ([4]; first compound 0.253 µM): 1.13 | relative viability ([4]; first compound 0.8 µM): 0.888 | relative viability ([4]; first compound 2.53 µM): 0.974 | relative viability ([4]; first compound 8 µM): 1.13 | relative viability ([5]; first compound 0.253 µM): 0.711 | relative viability ([5]; first compound 0.8 µM): 0.599 | relative viability ([5]; first compound 2.53 µM): 0.747 | relative viability ([5]; first compound 8 µM): 0.619

NCI-H1563
relative viability ([1]; 0.253 µM): 0.975 | relative viability ([1]; 0.8 µM): 1 | relative viability ([1]; 2.53 µM): 0.955 | relative viability ([1]; 8 µM): 0.929 | relative viability ([2]; first compound 0.253 µM): 0.907 | relative viability ([2]; first compound 0.8 µM): 0.881 | relative viability ([2]; first compound 2.53 µM): 0.991 | relative viability ([2]; first compound 8 µM): 0.811 | relative viability ([4]; first compound 0.253 µM): 1.17 | relative viability ([4]; first compound 0.8 µM): 1.1 | relative viability ([4]; first compound 2.53 µM): 1.26 | relative viability ([4]; first compound 8 µM): 1.04 | relative viability ([5]; first compound 0.253 µM): 0.538 | relative viability ([5]; first compound 0.8 µM): 0.509 | relative viability ([5]; first compound 2.53 µM): 0.573 | relative viability ([5]; first compound 8 µM): 0.542

NCI-H1650
relative viability ([1]; 0.253 µM): 0.937 | relative viability ([1]; 0.8 µM): 0.932 | relative viability ([1]; 2.53 µM): 0.901 | relative viability ([1]; 8 µM): 0.877 | relative viability ([2]; first compound 0.253 µM): 0.982 | relative viability ([2]; first compound 0.8 µM): 0.897 | relative viability ([2]; first compound 2.53 µM): 1.11 | relative viability ([2]; first compound 8 µM): 1.2 | relative viability ([3]; first compound 0.253 µM): 0.562 | relative viability ([3]; first compound 0.8 µM): 0.614 | relative viability ([3]; first compound 2.53 µM): 0.494 | relative viability ([3]; first compound 8 µM): 0.622 | relative viability ([5]; first compound 0.253 µM): 0.185 | relative viability ([5]; first compound 0.8 µM): 0.196 | relative viability ([5]; first compound 2.53 µM): 0.162 | relative viability ([5]; first compound 8 µM): 0.186

NCI-H1703
relative viability ([1]; 0.253 µM): 0.953 | relative viability ([1]; 0.8 µM): 0.871 | relative viability ([1]; 2.53 µM): 0.886 | relative viability ([1]; 8 µM): 1.07 | relative viability ([2]; first compound 0.253 µM): 0.718 | relative viability ([2]; first compound 0.8 µM): 0.727 | relative viability ([2]; first compound 2.53 µM): 0.565 | relative viability ([2]; first compound 8 µM): 1.04 | relative viability ([4]; first compound 0.253 µM): 0.852 | relative viability ([4]; first compound 0.8 µM): 1.12 | relative viability ([4]; first compound 2.53 µM): 0.853 | relative viability ([4]; first compound 8 µM): 0.6

NCI-H1792
relative viability ([1]; 0.253 µM): 0.763 | relative viability ([1]; 0.8 µM): 0.786 | relative viability ([1]; 2.53 µM): 1.08 | relative viability ([1]; 8 µM): 0.832 | relative viability ([2]; first compound 0.253 µM): 1.1 | relative viability ([2]; first compound 0.8 µM): 0.902 | relative viability ([2]; first compound 2.53 µM): 1.08 | relative viability ([2]; first compound 8 µM): 0.878 | relative viability ([4]; first compound 0.253 µM): 0.551 | relative viability ([4]; first compound 0.8 µM): 0.624 | relative viability ([4]; first compound 2.53 µM): 0.59 | relative viability ([4]; first compound 8 µM): 0.559 | relative viability ([5]; first compound 0.253 µM): 0.586 | relative viability ([5]; first compound 0.8 µM): 0.4 | relative viability ([5]; first compound 2.53 µM): 0.541 | relative viability ([5]; first compound 8 µM): 0.419

NCI-H1793
relative viability ([1]; 0.253 µM): 0.808 | relative viability ([1]; 0.8 µM): 1.02 | relative viability ([1]; 2.53 µM): 0.815 | relative viability ([1]; 8 µM): 1.12 | relative viability ([3]; first compound 0.253 µM): 0.665 | relative viability ([3]; first compound 0.8 µM): 0.747 | relative viability ([3]; first compound 2.53 µM): 0.797 | relative viability ([3]; first compound 8 µM): 0.805 | relative viability ([4]; first compound 0.253 µM): 0.656 | relative viability ([4]; first compound 0.8 µM): 0.944 | relative viability ([4]; first compound 8 µM): 0.956 | relative viability ([5]; first compound 0.8 µM): 0.183 | relative viability ([5]; first compound 2.53 µM): 0.177 | relative viability ([5]; first compound 8 µM): 0.15

NCI-H2170
relative viability ([1]; 0.253 µM): 0.983 | relative viability ([1]; 0.8 µM): 0.928 | relative viability ([1]; 2.53 µM): 1.02 | relative viability ([1]; 8 µM): 0.925 | relative viability ([2]; first compound 0.253 µM): 1.15 | relative viability ([2]; first compound 0.8 µM): 1.19 | relative viability ([2]; first compound 2.53 µM): 1.23 | relative viability ([2]; first compound 8 µM): 1.28 | relative viability ([3]; first compound 0.253 µM): 0.881 | relative viability ([3]; first compound 0.8 µM): 0.791 | relative viability ([3]; first compound 2.53 µM): 0.869 | relative viability ([3]; first compound 8 µM): 0.78 | relative viability ([5]; first compound 0.253 µM): 0.686 | relative viability ([5]; first compound 0.8 µM): 0.879 | relative viability ([5]; first compound 2.53 µM): 0.716 | relative viability ([5]; first compound 8 µM): 0.746

SW 900
relative viability ([1]; 0.253 µM): 0.672 | relative viability ([1]; 0.8 µM): 0.717 | relative viability ([1]; 2.53 µM): 0.785 | relative viability ([1]; 8 µM): 0.786 | relative viability ([3]; first compound 0.253 µM): 0.434 | relative viability ([3]; first compound 0.8 µM): 0.582 | relative viability ([3]; first compound 2.53 µM): 0.524 | relative viability ([3]; first compound 8 µM): 0.538 | relative viability ([5]; first compound 0.253 µM): 0.217 | relative viability ([5]; first compound 0.8 µM): 0.193 | relative viability ([5]; first compound 2.53 µM): 0.174 | relative viability ([5]; first compound 8 µM): 0.166
